The values that follow come from US20230277534A1 (Plexxikon Inc., priority 2011, published 2023).

The IC50 is the concentration that inhibits the measured activity by half. A high value points to lower potency.

Chain of B-Raf V600E (P15056 whole entry V600E): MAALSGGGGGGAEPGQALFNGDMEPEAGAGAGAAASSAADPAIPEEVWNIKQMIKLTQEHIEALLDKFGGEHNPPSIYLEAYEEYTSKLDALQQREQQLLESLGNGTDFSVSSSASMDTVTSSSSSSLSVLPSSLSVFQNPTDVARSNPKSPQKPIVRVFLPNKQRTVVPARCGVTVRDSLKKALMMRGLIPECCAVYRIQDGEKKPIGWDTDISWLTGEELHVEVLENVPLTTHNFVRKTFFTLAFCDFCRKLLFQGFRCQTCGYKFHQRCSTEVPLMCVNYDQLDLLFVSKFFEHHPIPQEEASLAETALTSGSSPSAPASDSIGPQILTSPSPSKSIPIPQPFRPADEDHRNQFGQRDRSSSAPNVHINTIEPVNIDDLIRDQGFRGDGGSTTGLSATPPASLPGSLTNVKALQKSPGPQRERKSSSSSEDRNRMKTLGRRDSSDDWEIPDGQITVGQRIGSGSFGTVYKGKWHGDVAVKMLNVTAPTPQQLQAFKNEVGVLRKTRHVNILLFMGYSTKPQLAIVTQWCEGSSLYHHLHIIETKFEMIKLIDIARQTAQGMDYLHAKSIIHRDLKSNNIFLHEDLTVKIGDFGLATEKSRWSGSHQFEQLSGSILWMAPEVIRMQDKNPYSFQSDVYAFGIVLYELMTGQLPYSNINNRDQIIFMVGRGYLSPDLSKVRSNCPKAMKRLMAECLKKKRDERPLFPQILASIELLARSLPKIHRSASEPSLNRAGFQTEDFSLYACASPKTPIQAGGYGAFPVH

For the experiment, the target named is B-Raf V600E (Homo sapiens (Human), UniProt P15056, V600E). Put plainly: B-Raf V600E kinase biochemical activity assay (AlphaScreen, biotin-MEK1 substrate). The settings on record: 100 μM ATP. The protocol:
Assays for biochemical and cell based activity are known in the art, for example, as described in PCT publication WO 2007/002433, the disclosure of which is hereby incorporated by reference as it relates to such assays. For example, the biochemical activity IC50 values are determined with respect to inhibition of B-Raf V600E kinase activity or p-Erk kinase activity, where inhibition of phosphorylation of a peptide substrate is measured as a function of compound concentration. Compounds to be tested are diluted in dimethyl sulfoxide to a concentration of 0.1 mM. These are serially diluted 15 μL into 30 μL of dimethyl sulfoxide seven times in 96 well plates for a total of 8 dilution points, and for each dilution point 1 μL is added to a well of an assay plate. Plates are prepared such that each well in a 384 well plate contains 1 μL of compound in 10 μL volume with 0.1 ng Raf enzyme (i.e. any of B-Raf, c-Raf-1 or B-Raf V600E, Upstate Biotechnology or prepared by methods known to one of skill in the art), 50 mM HEPES, pH 7.0, 50 mM NaCl, 2 mM MgCl2, 1 mM MnCl2, 0.01% Tween-20, 1 mM DTT, and 100 nM biotin-MEK1 as substrate. The reaction is started with addition of 10 μL of 200 μM ATP (i.e. final 100 μM ATP). After incubation of the kinase reaction for 45 minutes at room temperature, 5 μL/well of Stop Solution is added (25 mM Hepes pH 7.5, 100 mM EDTA, 0.01% BSA with donor beads (Streptavidin coated beads, Perkin Elmer), acceptor beads (Protein A coated, Perkin Elmer), and anti phosphor MEK1/2 antibody (CellSignal), each at final concentration 10 μg/mL). The plates are incubated for 3 hours at room temperature and read on Envision reader (Perkin Elmer). Phosphorylation of Mek1 results in binding of the anti-phosphor-MEK1/2antibody and association of the donor and acceptor beads such that signal correlates with kinase activity. The signal vs. compound concentration is used to determine the IC50.
For `COC(=O)CCS(=O)(=O)Nc1cccc(C(=O)c2c[nH]c3ncc(-c4cnc(OC)nc4)cc23)c1F` [Compound P-0066, methyl 3-[[2-fluoro-3-[5-(2-methoxypyrimidin-5-yl)-1H-pyrrolo[2,3-b]pyridine-3-carbonyl]phenyl]sulfamoyl]propanoate], the half-maximal inhibitory concentration (IC50) is less than 0.1 µM. For `COc1ncc(-c2cnc3[nH]cc(C(=O)c4cccc(NS(=O)(=O)C5CC5)c4F)c3c2)cn1` [Compound P-0067, N-[2-fluoro-3-[5-(2-methoxypyrimidin-5-yl)-1H-pyrrolo[2,3-b]pyridine-3-carbonyl]phenyl]cyclopropanesulfonamide], the 50% inhibitory concentration (IC50) was less than 0.1 µM. For `CCNS(=O)(=O)Nc1cccc(C(=O)c2c[nH]c3ncc(-c4cnc(OC)nc4)cc23)c1F` [Compound P-0068, [3-(ethylsulfamoylamino)-2-fluoro-phenyl]-[5-(2-methoxypyrimidin-5-yl)-1H-pyrrolo[2,3-b]pyridin-3-yl]methanone] the value was less than 0.1 µM. Under `CCNS(=O)(=O)Nc1cccc(C(=O)c2c[nH]c3ncc(I)cc23)c1F` [Compound P-0069, [3-(ethylsulfamoylamino)-2-fluoro-phenyl]-(5-iodo-1H-pyrrolo[2,3-b]pyridin-3-yl)methanone] stands less than 0.1 µM. For `COc1ncc(-c2cnc3[nH]cc(C(=O)c4cccc(NS(=O)(=O)N(C)C(C)C)c4F)c3c2)cn1` [Compound P-0075, 3-[2-fluoro-3-[[isopropyl(methyl)sulfamoyl]amino]benzoyl]-5-(2-methoxypyrimidin-5-yl)-1H-pyrrolo[2,3-b]pyridine] the value was greater than 0.1 µM; for `CCCN(C)S(=O)(=O)Nc1ccc(F)c(C(=O)c2c[nH]c3ncc(-c4ccc(C5(C#N)CC5)cc4)cc23)c1F` [Compound P-0079, 5-[4-(1-cyanocyclopropyl)phenyl]-3-[2,6-difluoro-3-[[methyl(propyl)sulfamoyl]amino]benzoyl]-1H-pyrrolo[2,3-b]pyridine], less than 0.1 µM; for `CCCN(C)S(=O)(=O)Nc1cccc(C(=O)c2c[nH]c3ncc(-c4cnc(NC5CC5)nc4)cc23)c1F` [Compound P-0082, 5-[2-(cyclopropylamino)pyrimidin-5-yl]-3-[2-fluoro-3-[[methyl(propyl)sulfamoyl]amino]benzoyl]-1H-pyrrolo[2,3-b]pyridine], less than 0.1 µM. For `COc1ncc(-c2cnc3[nH]cc(C(=O)c4cccc(NS(=O)(=O)N(C)CC5CC5)c4F)c3c2)cn1` [Compound P-0083, 3-[3-[[cyclopropylmethyl(methyl)sulfamoyl]amino]-2-fluoro-benzoyl]-5-(2-methoxypyrimidin-5-yl)-1H-pyrrolo[2,3-b]pyridine], the IC50 is less than 0.1 µM. For `CCCN(C)S(=O)(=O)Nc1cccc(C(=O)c2c[nH]c3ncc(-c4cnc(C5CC5)nc4)cc23)c1F` [Compound P-0086, 5-(2-cyclopropylpyrimidin-5-yl)-3-[2-fluoro-3-[[methyl(propyl)sulfamoyl]amino]benzoyl]-1H-pyrrolo[2,3-b]pyridine] the value was less than 0.1 µM; for `CCN(C)S(=O)(=O)Nc1cccc(C(=O)c2c[nH]c3ncc(-c4ccc(C5CC5)nc4)cc23)c1F` [Compound P-0087, 5-(6-cyclopropyl-3-pyridyl)-3-[3-[[ethyl(methyl)sulfamoyl]amino]-2-fluoro-benzoyl]-1H-pyrrolo[2,3-b]pyridine], less than 0.1 µM; for `N#Cc1ncc(-c2cnc3[nH]cc(C(=O)c4cccc(NS(=O)(=O)N5CCCC5)c4F)c3c2)cn1` [Compound P-0091, N-[3-[5-(2-cyanopyrimidin-5-yl)-1H-pyrrolo[2,3-b]pyridine-3-carbonyl]-2-fluoro-phenyl]pyrrolidine-1-sulfonamide], less than 0.1 µM. For `CN(C)S(=O)(=O)Nc1cccc(C(=O)c2c[nH]c3ncc(-c4cnc(C#N)nc4)cc23)c1F` [Compound P-0096, 5-(2-cyanopyrimidin-5-yl)-3-[3-(dimethylsulfamoylamino)-2-fluoro-benzoyl]-1H-pyrrolo[2,3-b]pyridine] the value was less than 0.1 µM; for `CN(C)S(=O)(=O)Nc1cccc(C(=O)c2c[nH]c3ncc(-c4ccc(C(C)(C)O)cc4)cc23)c1F` [Compound P-0103, 3-[3-(dimethylsulfamoylamino)-2-fluoro-benzoyl]-5-[4-(1-hydroxy-1-methyl-ethyl)phenyl]-1H-pyrrolo[2,3-b]pyridine], less than 0.1 µM; for `CC(C)(O)c1ccc(-c2cnc3[nH]cc(C(=O)c4cccc(NS(=O)(=O)N5CCCC5)c4F)c3c2)cc1` [Compound P-0105, N-[2-fluoro-3-[5-[4-(1-hydroxy-1-methyl-ethyl)phenyl]-1H-pyrrolo[2,3-b]pyridine-3-carbonyl]phenyl]pyrrolidine-1-sulfonamide], less than 0.1 µM. For `CCN(C)S(=O)(=O)Nc1cccc(C(=O)c2c[nH]c3ncc(-c4cnc(N5CCCC5)nc4)cc23)c1F` [Compound P-0108, 3-[3-1[[ethyl(methyl)sulfamoyl]amino]-2-fluoro-benzoyl]-5-(2-pyrrolidin-1-ylpyrimidin-5-yl)-1H-pyrrolo[2,3-b]pyridine] the value was less than 0.1 µM; for `CCCNS(=O)(=O)Nc1cccc(C(=O)c2c[nH]c3ncc(C)cc23)c1F` [Compound P-0223, [2-fluoro-3-(propylsulfamoylamino)phenyl]-(5-methyl-1H-pyrrolo[2,3-b]pyridin-3-yl)methanone], greater than 0.1 µM; for `O=C(c1cccc(NS(=O)(=O)N2CCCC2)c1F)c1c[nH]c2ncc(-c3cnc(NC4CC4)nc3)cc12` [Compound P-0232, N-[3-[5-[2-(cyclopropylamino)pyrimidin-5-yl]-1H-pyrrolo[2,3-b]pyridine-3-carbonyl]-2-fluoro-phenyl]pyrrolidine-1-sulfonamide], less than 0.1 µM.

As for `CCOc1cnc(-c2cnc3[nH]cc(C(=O)c4c(F)ccc(NS(=O)(=O)N(C)C)c4F)c3c2)cn1` [Compound P-0244, 3-[3-(dimethylsulfamoylamino)-2,6-difluoro-benzoyl]-5-(5-ethoxypyrazin-2-yl)-1H-pyrrolo[2,3-b]pyridine], the IC50 is less than 0.1 µM.

For `CN(C)S(=O)(=O)Nc1cccc(C(=O)c2c[nH]c3ncc(-c4ccc(C(C)(C)C#N)cc4)cc23)c1F` [Compound P-0245, 5-[4-(1-cyano-1-methyl-ethyl)phenyl]-3-[3-(dimethylsulfamoylamino)-2-fluoro-benzoyl]-1H-pyrrolo[2,3-b]pyridine], the IC50 is less than 0.1 µM.

Turning to `COC(=O)C1(c2ccc(-c3cnc4[nH]cc(C(=O)c5cccc(NS(=O)(=O)N6CCCC6)c5F)c4c3)cc2)CC1` [Compound P-0254, methyl 1-[4-[3-[2-fluoro-3-(pyrrolidin-1-ylsulfonylamino)benzoyl]-1H-pyrrolo[2,3-b]pyridin-5-yl]phenyl]cyclopropanecarboxylate], the IC50 was less than 0.1 µM. Under `CN(C)S(=O)(=O)Nc1ccc(F)c(C(=O)c2c[nH]c3ncc(-c4ccc(C(C)(C)C#N)cc4)cc23)c1F` [Compound P-0255, 5-[4-(1-cyano-1-methyl-ethyl)phenyl]-3-[3-(dimethylsulfamoylamino)-2,6-difluoro-benzoyl]-1H-pyrrolo[2,3-b]pyridine] stands less than 0.1 µM. Under `CCOC(=O)C1CCCN1S(=O)(=O)Nc1cccc(C(=O)c2c[nH]c3ncc(-c4cnc(OC)nc4)cc23)c1F` (stereo not shown) [Compound P-0257, ethyl 1-[[2-fluoro-3-[5-(2-methoxypyrimidin-5-yl)-1H-pyrrolo[2,3-b]pyridine-3-carbonyl]phenyl]sulfamoyl]pyrrolidine-2-carboxylate] stands greater than 0.1 µM; under `CCN(C)S(=O)(=O)Nc1ccc(F)c(C(=O)c2c[nH]c3ncc(-c4cnc(N5CCN(C(=O)OC(C)(C)C)CC5)nc4)cc23)c1F` [Compound P-0264, tert-butyl 4-[5-[3-[3-[[ethyl(methyl)sulfamoyl]amino]-2,6-difluoro-benzoyl]-1H-pyrrolo[2,3-b]pyridin-5-yl]pyrimidin-2-yl]piperazine-1-carboxylate], less than 0.1 µM.

In the case of `O=C(c1c(F)ccc(NS(=O)(=O)N2CCCC2)c1F)c1c[nH]c2ncc(-c3cnc(N4CCOCC4)nc3)cc12` [Compound P-0266, N-[2,4-difluoro-3-[5-(2-morpholinopyrimidin-5-yl)-1H-pyrrolo[2,3-b]pyridine-3-carbonyl]phenyl]pyrrolidine-1-sulfonamide], the IC50 is less than 0.1 µM. `CC(=O)N(C)C1CCN(S(=O)(=O)Nc2cccc(C(=O)c3c[nH]c4ncc(-c5cnc(C6CC6)nc5)cc34)c2F)C1` (stereo not shown) [Compound P-0267, N-[1-[[3-[5-(2-cyclopropylpyrimidin-5-yl)-1H-pyrrolo[2,3-b]pyridine-3-carbonyl]-2-fluoro-phenyl]sulfamoyl]pyrrolidin-3-yl]-N-methyl-acetamide] returned a 50% inhibitory concentration (IC50) greater than 0.1 µM.
